Measurements: PubChem BioAssay (NCI)
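Exposure lasted 48 hours, with cells grown in 96-well plates and compounds tested at five concentrations. The concentration for full growth arrest is given as TGI.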

Legend:
Assay in all cases: NCI anticancer screen, dose series, 48 h
HCT-15 colon = system: HCT-15 colon
M14 melanoma = system: M14 melanoma
K-562 leukemia = system: K-562 leukemia
A498 renal = system: A498 renal
IGROV1 ovarian = system: IGROV1 ovarian
LOX IMVI melanoma = system: LOX IMVI melanoma
SK-OV-3 ovarian = system: SK-OV-3 ovarian
SF-295 CNS = system: SF-295 CNS
LXFL 529 NSCLC = system: LXFL 529 NSCLC
MALME-3M melanoma = system: MALME-3M melanoma
COLO 205 colon = system: COLO 205 colon
A549 NSCLC = system: A549 NSCLC
786-0 renal = system: 786-0 renal
SF-268 CNS = system: SF-268 CNS
OVCAR-8 ovarian = system: OVCAR-8 ovarian
KM20L2 colon = system: KM20L2 colon
NCI-H460 lung = system: NCI-H460 lung
HCC-2998 colon = system: HCC-2998 colon
SK-MEL-2 melanoma = system: SK-MEL-2 melanoma
TK-10 renal = system: TK-10 renal
SN12C renal = system: SN12C renal
SNB-19 CNS = system: SNB-19 CNS
DMS 273 small cell lung = system: DMS 273 small cell lung
UACC-62 melanoma = system: UACC-62 melanoma
HOP-62 NSCLC = system: HOP-62 NSCLC
HCT-116 colon = system: HCT-116 colon
NCI-H23 lung = system: NCI-H23 lung
SW-620 colon = system: SW-620 colon
HOP-18 NSCLC = system: HOP-18 NSCLC
UACC-257 melanoma = system: UACC-257 melanoma
U251 CNS = system: U251 CNS
HT29 colon = system: HT29 colon
CAKI-1 renal = system: CAKI-1 renal
SNB-75 CNS = system: SNB-75 CNS
NCI-H522 lung = system: NCI-H522 lung
M19-MEL melanoma = system: M19-MEL melanoma
HOP-92 NSCLC = system: HOP-92 NSCLC
SK-MEL-5 melanoma = system: SK-MEL-5 melanoma
MOLT-4 leukemia = system: MOLT-4 leukemia
OVCAR-5 ovarian = system: OVCAR-5 ovarian
SK-MEL-28 melanoma = system: SK-MEL-28 melanoma
CCRF-CEM leukemia = system: CCRF-CEM leukemia
EKVX NSCLC = system: EKVX NSCLC
OVCAR-4 ovarian = system: OVCAR-4 ovarian
ACHN renal = system: ACHN renal
DMS 114 small cell lung = system: DMS 114 small cell lung
SR leukemia = system: SR leukemia
RPMI-8226 leukemia = system: RPMI-8226 leukemia
NCI-H226 lung = system: NCI-H226 lung
SF-539 CNS = system: SF-539 CNS
XF 498 CNS = system: XF 498 CNS
OVCAR-3 ovarian = system: OVCAR-3 ovarian
KM12 colon = system: KM12 colon
HL-60(TB) leukemia = system: HL-60(TB) leukemia
DLD-1 colon = system: DLD-1 colon

CN(C)N=Nc1cn[nH]c1C(N)=O
TGI (HCT-15 colon): > 100 µM | TGI (M14 melanoma): > 100 µM | TGI (K-562 leukemia): > 100 µM | TGI (A498 renal): > 100 µM | TGI (IGROV1 ovarian): > 100 µM | TGI (LOX IMVI melanoma): > 100 µM | TGI (SK-OV-3 ovarian): > 100 µM | TGI (SF-295 CNS): > 100 µM | TGI (LXFL 529 NSCLC): > 100 µM | TGI (MALME-3M melanoma): > 100 µM | TGI (COLO 205 colon): > 100 µM | TGI (A549 NSCLC): > 100 µM | TGI (786-0 renal): > 100 µM | TGI (SF-268 CNS): > 100 µM | TGI (OVCAR-8 ovarian): > 100 µM | TGI (KM20L2 colon): > 100 µM | TGI (NCI-H460 lung): > 100 µM | TGI (HCC-2998 colon): > 100 µM | TGI (SK-MEL-2 melanoma): > 100 µM | TGI (TK-10 renal): > 100 µM | TGI (SN12C renal): > 100 µM | TGI (SNB-19 CNS): > 100 µM | TGI (DMS 273 small cell lung): > 100 µM | TGI (UACC-62 melanoma): 93.3 µM | TGI (HOP-62 NSCLC): > 100 µM | TGI (HCT-116 colon): > 100 µM | TGI (NCI-H23 lung): > 100 µM | TGI (SW-620 colon): > 100 µM | TGI (HOP-18 NSCLC): > 100 µM | TGI (UACC-257 melanoma): > 100 µM | TGI (U251 CNS): > 100 µM | TGI (HT29 colon): > 100 µM | TGI (CAKI-1 renal): > 100 µM | TGI (SNB-75 CNS): > 100 µM | TGI (NCI-H522 lung): > 100 µM | TGI (M19-MEL melanoma): > 100 µM | TGI (HOP-92 NSCLC): > 100 µM | TGI (SK-MEL-5 melanoma): > 100 µM | TGI (MOLT-4 leukemia): > 100 µM | TGI (OVCAR-5 ovarian): > 100 µM | TGI (SK-MEL-28 melanoma): > 100 µM | TGI (CCRF-CEM leukemia): > 100 µM | TGI (EKVX NSCLC): > 100 µM | TGI (OVCAR-4 ovarian): > 100 µM | TGI (ACHN renal): > 100 µM | TGI (DMS 114 small cell lung): > 100 µM | TGI (SR leukemia): > 100 µM | TGI (RPMI-8226 leukemia): > 100 µM | TGI (NCI-H226 lung): > 100 µM | TGI (SF-539 CNS): > 100 µM | TGI (XF 498 CNS): > 100 µM | TGI (OVCAR-3 ovarian): > 100 µM | TGI (KM12 colon): > 100 µM | TGI (HL-60(TB) leukemia): > 100 µM | TGI (DLD-1 colon): > 100 µM
